The values below are quoted from earlier work in US7649096B2, “Process for the preparation of a crystalline form of (S)-N [[3-(3-fluoro-4(4-morpholinyl) phenyl]-2-oxo-5-oxazolidinyl] methyl] acetamide” (Glenmark Pharmaceuticals Limited, priority 2005, dated 2010).

SMILES strings stand for the structures.

The subject of data set [1] is enterococci. As to conditions: against enterococci.
The subject of data set [2] is staphylococci. As to conditions: against staphylococci.
The test system of data set [3] is streptococci. As to conditions: majority of strains.

Consider `CC(=O)NC[C@H]1CN(c2ccc(N3CCOCC3)c(F)c2)C(=O)O1` [linezolid, (S)-N-[[3-[3-fluoro-4-(4-morpholinyl)phenyl]-2-oxo-5-oxazolidinyl]methyl]acetamide], for which the “results of time-kill studies (bacteriostatic or bactericidal)” value in data set [1] is given as “bacteriostatic”; in data set [2] it was “bacteriostatic”; in data set [3], “bactericidal for the majority of strains”.
